Data as given in patent publication US5502166A, “NMDH receptor proteins and genes encoding the same” (Mitsubishi Chemical Corporation, priority 1992, dated 1996).
Where two headings read alike, the source gives them in different places.

How the values were obtained:
[1] = target: T1, ε2/.zeta.1 heteromeric NMDA receptor channel (Mus musculus, UniProt P35438+Q01097); experiment: Electrophysiological test in Xenopus oocytes expressing ε2 and .zeta.1 subunits; format: cell-based; details: for response to kainate / AMPA: 100 μM
T1 construct: expressed in transfected cells; host or cells: Xenopus oocytes injected with in vitro transcribed mRNAs
Description: (§1) Then, by using the pBKSA ε2 cut by NotI and the pBKSA ε3 cut by XbaI as molds and using T3 RNA polymerase produced by BRL Co., ε2-specific mRNAs and ε3-specific mRNAs were synthesized in vitro. Transcription was carried out in the same manner as in Example 1.
(§2) Effects of the competitive antagonist were examined with 10-fold concentration of the antagonist concentration used when examining the EC50 values.
Transcription was carried out in the same manner as in Example 1.

[2] = target: ε3/.zeta.1 heteromeric NMDA receptor channel (Mus musculus, UniProt P35438+Q01098); experiment: Electrophysiological test in Xenopus oocytes expressing ε3 and .zeta.1 subunits; format: cell-based; details: for response to kainate / AMPA: 100 μM
Description: as §1, §2

[3] = test system: ε2-N589Q/.zeta.1 NMDA receptor channel; experiment: Electrophysiological test in Xenopus oocytes expressing modified ε2-N589Q/.zeta.1 channel; format: cell-based, mouse
Excerpt: (§3) In the figures, FIGS. 4(a), 4(b), 4(c) and 4(d) represent an ε2/.zeta.1 NMDA receptor channel, an ε2/.zeta.1-N598Q (a modified glutamate receptor shown in Sequence ID No. 9 of the sequence table) NMDA receptor channel, an ε2-N589Q (a modified glutamate receptor shown in Sequence ID No. 8 of the sequence table)/.zeta.l NMDA receptor channel and an ε2-N589Q/.zeta.1-N598Q NMDA receptor channel, respectively.
(§4) FIGS. 5(a) to 5(d) show current-voltage relationships of wild type and mutant heteromeric channels in the presence of 1 mM Mg^2+ ( ) and in the absence thereof (.smallcircle.). In the figures, FIGS. 5(a) , 5(b) , 5(c) and 5(d) represent an ε2/.zeta.1 NMDA receptor channel, an ε2/.zeta.1-N598Q NMDA receptor channel, an ε2-N589Q/.zeta.1 NMDA receptor channel and an ε2-N589Q/.zeta.1-N598Q NMDA receptor channel, respectively.
(§5) In the figure, .largecircle., , , .quadrature. and represent an ε2/.zeta.1 NMDA receptor channel, an ε2/.zeta.1-N598Q NMDA receptor channel, an ε2-N589Q/.zeta.1 NMDA receptor channel, an ε2-N589Q/.zeta.1-N598Q NMDA receptor channel and an ε2/.zeta.1-ZAZ (a mutant glutamate receptor shown in Sequence ID No. 10 of the sequence table) NMDA receptor channel, respectively. […]

[4] = test system: ε2-N589Q/.zeta.1-N598Q NMDA receptor channel; experiment: Electrophysiological test in Xenopus oocytes expressing modified ε2-N589Q/.zeta.1-N598Q channel; format: cell-based, mouse
Excerpt: as §3, §4, §5

[5] = test system: ε2/.zeta.1-N598Q NMDA receptor channel; experiment: Electrophysiological test in Xenopus oocytes expressing modified ε2/.zeta.1-N598Q channel; format: cell-based, mouse
Excerpt: as §3, §4, §5

[6] = test system: ε2 subunit; experiment: Electrophysiological test in Xenopus oocytes expressing only the ε2 subunit; format: cell-based, mouse; details: ε2 mRNA alone
Description: (§6) The oocytes used were obtained from mature female Xenopus and separated into one oocyte in a Barth medium by using sharp tweezers and scissors. The concentration of the mRNAs was 0.1 μg/μl and 10 μl thereof was injected into about 100 oocytes in an amount of 50 to 100 nl per one oocyte. The mRNAs were injected under a microscope by using a capillary and a micromanipulator. After the injection, the oocytes were incubated at 19° C. for one day in a Barth medium containing 0.1 mg/ml of gentamicin ("The Control of Gene Expression in Animal Development, Clarendon, Oxford (1974)). Then, the oocytes were allowed to stand in 1 mg/ml of collagenase at room temperature for 1 hour, and then extracellular skins were removed under a microscope by using sharp tweezers. These oocytes were returned to the Barth medium containing 0.1 mg/ml of gentamicin, incubated again at 19° C. for one day and then used for an electrophysiological test.
(§7) The electrophysiological test was carried out by a conventional micropipet voltage clamp method. Oocytes generally have a membrane potential of about -30 to -40 mV. […] In the present experiment system, flow of these ions were detected, and opening and closing of the ion channel were observed. […]

[7] = target: ε4/.zeta.1 heteromeric NMDA receptor channel (Mus musculus, UniProt P35438+Q03391); experiment: Electrophysiological test in Xenopus oocytes expressing ε4 and .zeta.1 subunits; format: cell-based
Description: FIGS. 1(a) and 1(b) show functional expression of ε4/.zeta.1 heteromeric NMDA receptor channel cDNAs in frog oocytes. Current responses are measured at -70 mV membrane potential in normal Ringer's solution. […] FIG. 1(b) represent effects of 500 μM D-2-amino-5-phosphonovalerate (APV) (Glu/Gly +APV) and 100 μM 7-chlorokynurenate (7 CK) (Glu/Gly +7 CK) on a current response of the ε4/.zeta.1 heteromeric channel to Glu/Gly, respectively.
Current responses are measured at -70 mV membrane potential in a Ba^2+ -Ringer's solution.
Then, by using the pSPGR ε4 plasmid cut by EcoRI as a template and using SP6 RNA polymerase, ε4-specific mRNAs were synthesized in vitro. Transcription was carried out in the same manner as in Example 1.

[8] = test system: ε1 subunit; experiment: Electrophysiological test in Xenopus oocytes expressing only the ε1 subunit; format: cell-based, mouse; details: 10 μM L-glutamate and 100 μM NMDA, even in the presence of 10 μM glycine
Description: One or both of ε1 subunit-specific mRNAs and .zeta.1.NMDA type glutamate receptor subunit-specific mRNAs (mRNAs derived from mice, coding an amino acid sequence different in the 213rd (Glu→Asp) and the 460th (Ile→Val) from the N terminal end from the amino acid sequence which is coded by cDNA.-NMDA R1 of a rat-NMDA type glutamate receptor cloned by Nakanishi et al. ("Nature", 354, pp. 31 to 37 (1991))) were injected into Xenopus oocytes.
The oocytes used were obtained from mature female Xenopus and separated into one oocyte in a Barth medium by using sharp tweezers and scissors. The concentration of the mRNAs was 0.1 μg/μl and 10 μl thereof was injected into about 100 oocytes in an amount of 50 to 100 nl per one oocyte. The mRNAs were injected under a microscope by using a capillary and a micromanipulator. After the injection, the oocytes were incubated at 19° C. for one day in a Barth medium containing 0.1 mg/ml of gentamicin ("The Control of Gene Expression in Animal Development, Clarendon, Oxford (1974)). […]
(§8) The electrophysiological test was carried out by a conventional micropipet voltage clamp method. […] In the present experiment system, flow of these ions were detected, and opening and closing of the ion channel were observed. […]

[9] = test system: ε3 subunit; experiment: Electrophysiological test in Xenopus oocytes expressing only the ε3 subunit; format: cell-based, mouse; details: ε3 mRNA alone
Description: as §6, §7

[10] = target: T2, ε1/.zeta.1 heteromeric NMDA receptor channel (Mus musculus, UniProt P35436+P35438); experiment: Electrophysiological test (micropipet voltage clamp) in Xenopus oocytes expressing ε1 and .zeta.1 subunits; format: cell-based
T2 construct: expressed in transfected cells; host or cells: Xenopus oocytes injected with in vitro transcribed mRNAs
Excerpt: as §2

[11] = target: .zeta.1 NMDA type receptor subunit (Mus musculus, UniProt P35438); experiment: Electrophysiological test in Xenopus oocytes expressing only the .zeta.1 subunit; details: 100 μM NMDA and 10 μM glycine, n=7
Description: Then, by using the pBKSA ε1 cut by NotI as a template and using T3 RNA polymerase produced by BRL Co., ε1-specific mRNAs were synthesized in vitro. Transcription was carried out in a solution containing ATP, TTP and CTP at a concentration of 0.5 mM, respectively and 0.1 mM GTP in the presence of 0.5 mM dinucleotide 7mGpppG having a cap structure (in which 2 Gs were linked at 5' and 7-site of one guanine was methylated, produced by P-L Biochemicals Co.). One or both of ε1 subunit-specific mRNAs and .zeta.1.NMDA type glutamate receptor subunit-specific mRNAs (mRNAs derived from mice, coding an amino acid sequence different in the 213rd (Glu→Asp) and the 460th (Ile→Val) from the N terminal end from the amino acid sequence which is coded by cDNA.-NMDA R1 of a rat-NMDA type glutamate receptor cloned by Nakanishi et al. ("Nature", 354, pp. 31 to 37 (1991))) were injected into Xenopus oocytes.
as §6
The electrophysiological test was carried out by a conventional micropipet voltage clamp method. […] First, while a frog standard Ringer's solution (115 mM NaCl, 2.5 mM KCl, 1.8 mM CaCl2 and 10 mM HEPES-NaOH (pH: 7.2)) was flown in a chamber, 2 glass microelectrodes charged with 3M KCl were stuck in the oocytes, and the membrane potential was fixed to -70 mV. In these oocytes, an agonist (NMDA) is linked to a glutamate receptor expressed on a cell membrane and an ion channel is opened, the oocytes have an action of returning membrane potential to an original value, whereby inflow and outflow of ions are caused. In the present experiment system, flow of these ions were detected, and opening and closing of the ion channel were observed.
The ε1 subunit-specific mRNAs synthesized from the cloned cDNAs in vitro were injected into the Xenopus oocytes. […]

[12] = test system: ε1/.xi.1, ε2/.xi.1 and ε3/.xi.1 heteromeric NMDA receptor channels; experiment: Comparison of ε1/, ε2/ and ε3/.xi.1 heteromeric channels in Xenopus oocytes; format: cell-based, mouse; details: 10-fold concentration used when examining EC50
Excerpt: as §2

[13] = test system: ε1/.xi.1, ε2/.xi.1, ε3/.xi.1 and ε4/.xi.1 heteromeric NMDA receptor channels; experiment: Comparison of ε1/, ε2/, ε3/ and ε4/.xi.1 heteromeric channels in Xenopus oocytes; format: cell-based, mouse
Description: as §6, §8

[14] = (+)-MK-801, continuous application
[15] = Ba^2+ Ringer's solution, dose-reaction curve

Sequence of ε4/.zeta.1 heteromeric NMDA receptor channel (Q03391 28-1323, other chains not shown): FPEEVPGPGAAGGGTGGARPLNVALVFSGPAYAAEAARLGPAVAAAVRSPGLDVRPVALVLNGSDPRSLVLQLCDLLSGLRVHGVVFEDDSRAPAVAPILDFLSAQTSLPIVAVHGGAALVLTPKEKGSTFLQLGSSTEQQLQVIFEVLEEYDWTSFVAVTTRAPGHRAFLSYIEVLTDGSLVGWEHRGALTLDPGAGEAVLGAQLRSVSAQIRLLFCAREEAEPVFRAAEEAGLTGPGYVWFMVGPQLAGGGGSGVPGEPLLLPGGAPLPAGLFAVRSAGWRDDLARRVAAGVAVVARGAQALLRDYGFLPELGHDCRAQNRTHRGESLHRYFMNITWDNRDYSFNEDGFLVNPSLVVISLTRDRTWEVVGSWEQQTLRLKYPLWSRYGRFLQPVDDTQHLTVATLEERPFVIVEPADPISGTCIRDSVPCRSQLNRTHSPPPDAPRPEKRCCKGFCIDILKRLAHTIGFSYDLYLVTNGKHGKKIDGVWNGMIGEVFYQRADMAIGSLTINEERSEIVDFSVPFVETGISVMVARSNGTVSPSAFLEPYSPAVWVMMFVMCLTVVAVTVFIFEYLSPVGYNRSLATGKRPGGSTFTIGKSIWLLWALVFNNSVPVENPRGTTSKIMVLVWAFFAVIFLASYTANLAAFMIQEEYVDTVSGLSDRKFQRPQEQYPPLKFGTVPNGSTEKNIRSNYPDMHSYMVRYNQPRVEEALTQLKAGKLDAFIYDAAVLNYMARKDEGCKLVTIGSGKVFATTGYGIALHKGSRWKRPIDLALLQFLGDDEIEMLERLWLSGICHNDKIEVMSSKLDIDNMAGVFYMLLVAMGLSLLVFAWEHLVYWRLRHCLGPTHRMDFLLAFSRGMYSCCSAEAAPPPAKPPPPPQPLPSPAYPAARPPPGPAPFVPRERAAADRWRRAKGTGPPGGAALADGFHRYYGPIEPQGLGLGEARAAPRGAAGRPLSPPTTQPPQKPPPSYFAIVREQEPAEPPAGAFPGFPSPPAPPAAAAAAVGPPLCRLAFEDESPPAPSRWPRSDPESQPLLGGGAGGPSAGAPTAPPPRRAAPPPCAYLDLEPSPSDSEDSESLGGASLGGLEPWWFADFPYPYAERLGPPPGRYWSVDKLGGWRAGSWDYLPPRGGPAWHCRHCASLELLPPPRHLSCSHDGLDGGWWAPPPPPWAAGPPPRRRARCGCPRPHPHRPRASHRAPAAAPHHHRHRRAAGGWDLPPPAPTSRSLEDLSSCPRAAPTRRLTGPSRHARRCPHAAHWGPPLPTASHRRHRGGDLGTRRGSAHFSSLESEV
T1 sequence (Q01097 27-1482, other chains not shown): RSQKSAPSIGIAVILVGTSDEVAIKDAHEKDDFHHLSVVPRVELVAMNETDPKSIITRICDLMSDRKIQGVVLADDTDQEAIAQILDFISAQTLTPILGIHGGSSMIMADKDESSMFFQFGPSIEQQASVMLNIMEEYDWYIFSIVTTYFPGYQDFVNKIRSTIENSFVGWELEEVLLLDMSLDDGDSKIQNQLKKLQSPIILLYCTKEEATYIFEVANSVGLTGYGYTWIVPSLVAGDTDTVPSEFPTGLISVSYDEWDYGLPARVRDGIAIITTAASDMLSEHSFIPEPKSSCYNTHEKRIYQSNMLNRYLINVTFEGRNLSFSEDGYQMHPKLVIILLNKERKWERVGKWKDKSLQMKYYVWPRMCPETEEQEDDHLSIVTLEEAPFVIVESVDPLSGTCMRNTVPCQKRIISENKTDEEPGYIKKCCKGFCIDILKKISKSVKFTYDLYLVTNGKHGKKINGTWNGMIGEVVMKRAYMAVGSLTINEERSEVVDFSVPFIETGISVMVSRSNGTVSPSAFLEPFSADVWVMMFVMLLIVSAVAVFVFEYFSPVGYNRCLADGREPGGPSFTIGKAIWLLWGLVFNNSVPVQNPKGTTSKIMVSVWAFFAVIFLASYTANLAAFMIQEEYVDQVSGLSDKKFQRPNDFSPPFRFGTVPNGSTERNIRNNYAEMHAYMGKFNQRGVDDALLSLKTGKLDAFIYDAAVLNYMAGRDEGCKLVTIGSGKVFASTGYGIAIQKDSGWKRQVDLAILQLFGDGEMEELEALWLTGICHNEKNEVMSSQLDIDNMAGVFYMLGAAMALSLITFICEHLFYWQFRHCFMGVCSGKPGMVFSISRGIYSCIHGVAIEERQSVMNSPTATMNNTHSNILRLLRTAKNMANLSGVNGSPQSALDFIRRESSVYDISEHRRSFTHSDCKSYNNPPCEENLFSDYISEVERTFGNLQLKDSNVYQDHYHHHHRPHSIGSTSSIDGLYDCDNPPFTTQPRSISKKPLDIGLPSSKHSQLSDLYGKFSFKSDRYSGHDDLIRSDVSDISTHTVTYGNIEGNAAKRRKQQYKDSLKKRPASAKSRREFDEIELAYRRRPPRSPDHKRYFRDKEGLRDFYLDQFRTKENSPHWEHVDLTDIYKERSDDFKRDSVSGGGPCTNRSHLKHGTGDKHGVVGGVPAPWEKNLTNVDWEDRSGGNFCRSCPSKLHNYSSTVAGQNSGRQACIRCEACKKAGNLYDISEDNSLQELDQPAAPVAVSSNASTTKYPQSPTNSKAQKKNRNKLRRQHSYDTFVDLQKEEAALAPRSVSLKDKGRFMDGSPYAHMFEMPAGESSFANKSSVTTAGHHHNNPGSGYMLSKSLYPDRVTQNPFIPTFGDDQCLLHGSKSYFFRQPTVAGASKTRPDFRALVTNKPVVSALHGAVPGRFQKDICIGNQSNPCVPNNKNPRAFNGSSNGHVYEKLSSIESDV
Sequence of ε3/.zeta.1 heteromeric NMDA receptor channel (Q01098 20-1239, other chains not shown): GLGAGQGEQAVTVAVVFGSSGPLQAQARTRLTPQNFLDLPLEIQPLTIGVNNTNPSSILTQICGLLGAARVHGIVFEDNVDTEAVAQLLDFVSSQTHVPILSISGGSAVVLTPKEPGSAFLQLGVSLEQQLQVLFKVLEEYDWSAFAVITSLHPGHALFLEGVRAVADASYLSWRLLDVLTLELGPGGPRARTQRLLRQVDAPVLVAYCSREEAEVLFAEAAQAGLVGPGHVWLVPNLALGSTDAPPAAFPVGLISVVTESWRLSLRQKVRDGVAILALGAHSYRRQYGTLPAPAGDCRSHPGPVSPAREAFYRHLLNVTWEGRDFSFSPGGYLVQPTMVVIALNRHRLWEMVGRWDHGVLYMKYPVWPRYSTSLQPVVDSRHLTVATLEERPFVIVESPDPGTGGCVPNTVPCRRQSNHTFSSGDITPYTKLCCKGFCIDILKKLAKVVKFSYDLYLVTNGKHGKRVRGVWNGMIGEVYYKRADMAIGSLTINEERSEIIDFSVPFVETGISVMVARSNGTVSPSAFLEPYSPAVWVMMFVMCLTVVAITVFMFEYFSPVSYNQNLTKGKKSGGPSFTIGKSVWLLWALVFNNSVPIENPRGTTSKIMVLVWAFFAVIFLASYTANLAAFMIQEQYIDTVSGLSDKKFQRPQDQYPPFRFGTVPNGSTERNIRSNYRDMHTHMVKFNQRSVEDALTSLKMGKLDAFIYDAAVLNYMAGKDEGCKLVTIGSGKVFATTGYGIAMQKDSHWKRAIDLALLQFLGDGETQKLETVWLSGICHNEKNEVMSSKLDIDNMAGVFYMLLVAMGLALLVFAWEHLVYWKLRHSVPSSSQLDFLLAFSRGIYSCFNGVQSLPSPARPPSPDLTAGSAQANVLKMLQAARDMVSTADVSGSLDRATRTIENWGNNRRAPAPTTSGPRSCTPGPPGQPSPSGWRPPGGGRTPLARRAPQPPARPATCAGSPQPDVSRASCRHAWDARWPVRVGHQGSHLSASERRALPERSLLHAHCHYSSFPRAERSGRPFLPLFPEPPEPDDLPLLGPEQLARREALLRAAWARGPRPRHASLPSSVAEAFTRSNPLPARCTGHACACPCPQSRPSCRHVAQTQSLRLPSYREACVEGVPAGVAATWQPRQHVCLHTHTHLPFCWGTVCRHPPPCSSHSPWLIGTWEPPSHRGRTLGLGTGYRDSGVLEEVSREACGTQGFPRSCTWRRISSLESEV

C=C(C)[C@H]1CN[C@H](C(=O)O)[C@H]1CC(=O)O [kainate]
response to kainate / AMPA [1]: less than the measurement limit
response to kainate / AMPA [2]: less than the measurement limit

C[C@]12N[C@H](Cc3ccccc31)c1ccccc12 [(+)-MK-801]
suppression after repetitive application [3, 14]: strongly inhibited
sensitivity to inhibition / current response ([3]; Mg^2+, Zn^2+, repetitive (+)-MK-801, frog standard Ringer's, -70 mV, 10 μM L-glutamate + 10 μM glycine): showed a great current response after repetitive application of (+)-MK-801
suppression after repetitive application ([4]; (+)-MK-801 applied three times repeatedly): retained high activities
resistance / sensitivity to inhibition ([4]; Mg^2+, Zn^2+, (+)-MK-801, frog standard Ringer's, -70 mV, 10 μM L-glutamate + 10 μM glycine): strong resistance
effect on response to 10 μM L-glutamate and 10 μM glycine [1]: suppressed
inhibition of current response [1]: strongly inhibited
suppression after repetitive application [1]: suppressed almost completely
effect on response to 10 μM L-glutamate and 10 μM glycine [2]: suppressed
inhibition of current response ([5]; 1 mM Mg^2+, 100 μM Zn^2+, 1 μM (+)-MK-801, frog standard Ringer's, -70 mV, 10 μM L-glutamate + 10 μM glycine): suppressed effectively
suppression after repetitive application [5, 14]: strongly inhibited

CN[C@H](CC(=O)O)C(=O)O [NMDA, N-methyl-D-aspartic acid]
response of oocytes injected singly [6]: < 1 nA
inward current ([7]; 100 μM NMDA and 10 μM glycine, frog standard Ringer's solution, -70 mV, n=8): 68±13 nA
reaction of injected oocytes [8]: did not show any reaction
response of oocytes injected singly [9]: < 1 nA
inward current [1]: 546±172 nA
current amplitude ([10]; 100 μM NMDA and 10 μM glycine, Ba^2+ Ringer's solution, n=7): 57±3 nA
inward current ([10]; 100 μM NMDA and 10 μM glycine, frog standard Ringer's solution, -70 mV, n=7): 175±30 nA
inward current [2]: 89±22 nA
current amplitude ([11]; Ba^2+ Ringer's solution): 1±0.2 nA
current amplitude ([11]; Example 1, frog standard Ringer's solution, -70 mV): 6±1 nA
current amplitude ([11]; Example 2): 9±2 nA
current amplitude ([11]; Example 3): 13±2 nA

O=C(O)c1cc(O)c2ccc(Cl)cc2n1 [7 CK, 7-chlorokynurenate]
order of strength in sensitivity to competitive antagonist [12]: ε3/.xi.1>ε2/.xi.1>ε1/.xi.1
decrease of channel activity ([7]; 100 μM APV or 3 μM 7 CK, response to 4.7 μM L-glutamate + 0.9 μM glycine, Ba^2+ Ringer's solution, -70 mV): 34%
effect on response to 10 μM L-glutamate and 10 μM glycine ([7]; 500 μM APV or 100 μM 7 CK): suppressed
degree of inhibition ([7]; compared with other ε/.xi. channels under the same conditions): smaller than those of the other ε/.xi. channels
order of sensitivity to competitive antagonist ([13]; 10-fold concentration of EC50 value): ε3/.xi.1>ε2/.xi.1>ε1/.xi.1=ε4/.xi.1
effect on response to 10 μM L-glutamate and 10 μM glycine [1]: suppressed
effect on response to 10 μM L-glutamate or 10 μM glycine alone [1]: disappeared
effect on response to 10 μM L-glutamate or 10 μM glycine alone ([2]; 100 μM APV, 30 μM 7 CK): disappeared
effect on response to 10 μM L-glutamate and 10 μM glycine ([2]; competitive antagonists, 100 μM Mg^2+, 100 μM Zn^2+, 1 μM (+)-MK-801): suppressed

NCC(=O)O [glycine]
EC50 [7]: 90 nM
Hill coefficient ([7]; Ba^2+ Ringer's solution, -70 mV): 1.2
order of strength in affinity to agonist ([13]; Ba^2+ Ringer's solution): ε4/.xi.1>ε3/.xi.1>ε2/.xi.1
response to agonist alone [1]: showed a response
EC50 [1, 15]: 300 nM
EC50 ([10]; Ba^2+ Ringer's solution, dose-reaction curve, read-out: EC50): 2100 nM
response to agonist alone [2]: showed a response only to 10 μM glycine
EC50 [2, 15]: 200 nM

N[C@@H](CCC(=O)O)C(=O)O [L-glutamate]
response of oocytes injected singly [6]: < 1 nA
response of oocytes injected singly [9]: < 1 nA
EC50 [10]: 1700 nM

Cc1onc(O)c1CC(N)C(=O)O (centres unmarked) [AMPA]
response to kainate / AMPA [1]: less than the measurement limit
response to kainate / AMPA [2]: less than the measurement limit

N[C@@H](CC(=O)O)C(=O)O [L-aspartic acid]
response to agonist alone [1]: showed a response
